According to PMC3365043, “Receptor-Targeting Phthalocyanine Photosensitizer for Improving Antitumor Photocytotoxicity” (PLoS ONE, 2012):
Where two headings read alike, the source gives them in different places.

What was measured:
S180 tumor-bearing mice = details: cited from earlier work
Source text: We previously described a peptide-conjugated photosensitizer (ZnPc-(Lys)5), zinc phthalocyanine (ZnPc) conjugated with pentalysine peptidyl moiety, and reported its in vitro and in vivo efficacy. The pentalysine peptide renders water solubility of ZnPc that is otherwise not soluble in physiological condition and requires specialized formulation with, e.g., Cremophor EL. […] Herein we report the synthesis and the physicochemical characterization of this ZnPc-GnRH conjugate, along with the evaluation of its photodynamic activity at cellular level. […] This work p ...

[1] = in DMSO; ref 20; cited from earlier work
Source text: Table 1 Photophysical parameters of ZnPc-GnRH conjugate in DMSO compared to that of ZnPc in DMSO. | column: Фf

[2] = in DMSO, cited from earlier work
Source text: Table 1 Photophysical parameters of ZnPc-GnRH conjugate in DMSO compared to that of ZnPc in DMSO. | column: τs (ns)

MDA-MB-231 [3] = system: MDA-MB-231
Experimental: (§1) The cell lines we used in the current study were human breast cancer cell lines (MDA-MB-231 and MCF-7), human hepatoblastoma cell line (HepG2) and human embryo lung fibroblasts (HELF). All these cell lines were purchased from American Type Culture Collection (ATCC, Manassas, VA, USA).
(§2) MDA-MB-231 and MCF-7 cells were maintained routinely in Dulbecco’s modified Eagle’s medium (DMEM) supplemented with 10% fetal calf serum (FCS) and antibiotics. HepG2 and HELF cells were grown in RPMI-1640 supplemented with 10% FCS and antibiotics. All cells were kept at 37°C in a humidified incubator with 5% CO2 atmosphere. The viability of cells was determined by Trypan blue dye exclusion. Cells were maintained in logarithmic phase with viability >95%.
(§3) Cells at a density of 2.5×10^5 per ml in a volume of 200 µl per well were placed in 96-multiwell black opaque plates and incubated overnight at 37°C under 5% CO2. […] The plates were illuminated at a light dosage of 1.5 J cm^−2 using a 670 nm SAS-DL3 medical laser (Beijing Shou’anshan Electronic Technology Co. Ltd. Beijing, China) and then returned to incubator; dark toxicity was measured in parallel. After 24 hr incubation, cell viability was measured on a microplate reader (Synergy 4, BioTek Instruments) using the AlamarBlue® fluorometric cell viability assay (BioSource International Inc., Camarillo, CA, USA) with λex 530 nm and λem 585 nm. […]

MCF-7 [4] = assay: Phototoxicity and dark toxicity, AlamarBlue cell viability; details: read-out: Phototoxicity IC50 (50% growth inhibition), 12 hr incubation, 670 nm laser, 1.5 J cm−2, viability after 24 hr
Experimental: as §1, §2, §3

[5] = Singlet oxygen quantum yield determination (DPBF decay); assay type: physicochemical; details: in DMSO; 0.5 µM; DPBF decay at 417 nm; 670 nm laser at 80 mW cm−2; ZnPc reference (0.67); error less than 10%
Experimental: The PDT effect of ZnPc type photosensitizer is usually mediated by type II mechanism involving singlet oxygen (^1O2) as major cytotoxic agent. The quantum yield of ^1O2 generation by ZnPc-GnRH was determined by comparing with the un-substituted zinc phthalocyanine (ZnPc) as reference, which has a quantum yield of 0.67 in DMSO [21]. Briefly, a 2 ml DMSO solution of the mixture of the ZnPc-GnRH conjugate (0.5 µM) and 1,3-diphenylisobenzofuran (DPBF, a scavenger molecule for ^1O2), was introduced to the spectrophotometric cell of 1 cm path length and illuminated with a laser light (670 nm at 80 mW cm^−2) in the presence of air (without degassing). The DPBF decay at 417 nm was monitored every 5 s. The concentration of DPBF was kept lower than 3×10^−5 M during the experiment to avoid chain reactions induced by DPBF in the presence of ^1O2. The quantum yield measurement has an error of less than 10%.

MCF-7 [6] = system: MCF-7
Experimental: as §1, §2, §3

[7] = Fluorescence quantum yield, comparative method with ZnPc as standard; assay type: physicochemical; details: in DMSO, ZnPc standard (Фf 0.2)
Experimental: Fluorescence quantum yield (Фf) of ZnPc-GnRH conjugate was measured by a comparative method using ZnPc as a standard (Фf (ZnPc) in DMSO = 0.2) using the Eq. (1) [drawing 1] (1) where Фf and Ф0 are fluorescence quantum yields of the conjugate and standard, respectively. Au and A0 are absorbances of the conjugate and standard, respectively. Fu and F0 are areas under the emission curves of the conjugate and standard, respectively. nu and n0 are refractive indices of the solvents used for the conjugate and standard, respectively. The fluorescence of the conjugate and standard were measured on a Cary Eclipse Fluorescence spectrophotometer (Varian, Inc., Walnut Creek, CA).

HELF [8] = system: HELF
Experimental: as §1, §2, §3

[9] = Fluorescence decay time by time-correlated single photon counting; assay type: physicochemical; details: in DMSO, 300 K, fitted decay curve
Experimental: Fluorescence decay time (τs) of ZnPc-GnRH conjugate was measured by time-correlated single photon counting experiment of fluorescence excited with a 1.2 ns pulse laser diode at 460 nm, performed on an Edinburgh Instruments FLS920 spectrofluorometer (Livingston, UK) at 300 K. Fluorescence lifetimes were estimated by fitting the decay data using an interactive deconvolution procedure based on Marquardt algorithm with software supplied by OriginLab.

HepG2 [10] = system: HepG2
Experimental: as §1, §2, §3

MDA-MB-231 [11] = assay: Phototoxicity and dark toxicity, AlamarBlue cell viability; details: read-out: Phototoxicity IC50 (50% growth inhibition), 12 hr incubation, 670 nm laser, 1.5 J cm−2, viability after 24 hr
Experimental: as §1, §2, §3

MCF-7 [12] = assay: Cellular uptake (fluorescence of cell lysate); details: 10^−7 to 10^−4.5 M, 12 hr, 37°C, 1% DMSO (ZnPc-GnRH) or 0.2% Cremophor EL (ZnPc-COOH), lysate fluorescence λex 610/λem 690 nm, mean of four experiments
Experimental: (§4) Aliquots of cells (2.5×10^5 per ml growth medium) were placed in 96-multiwell black opaque plates (Costa) and incubated overnight at 37°C under 5% CO2. Various concentrations (10^−7, 10^−6.5, 10^−6, 10^−5.5, 10^−5 and 10^−4.5 M) of ZnPc-GnRH conjugate (in 1% DMSO) or ZnPc-COOH (in an additional 0.2% Cremophor EL) were added and incubated with cells at 37°C. After 12 hr incubation, the exponentially growing cells were washed with sterile PBS before lysis with NaOH (0.1 N, 0.2 ml with 1% SDS) to give a homogenous solution. The fluorescence of the cell extract was measured on a microplate reader (Synergy 4, BioTek Instruments) with λex = 610 nm and λem = 690 nm. The concentration of cellular protein was determined with a BCA Protein Assay Kit (BioTeke Corporation, Beijing, China). Standard curves were made with cell lysates treated as above with known added amounts of bovine serum albumin. Results are expressed as nmol photosensitizer per mg cell protein.

HELF [13] = assay: Cellular uptake (fluorescence of cell lysate); assay type: cell-based, human; details: 10^−7 to 10^−4.5 M, 12 hr, 37°C, 0.2% Cremophor EL (ZnPc-COOH), mean of four experiments
Experimental: as §4

HepG2 [14] = assay: Cellular uptake (fluorescence of cell lysate); assay type: cell-based, human; details: 10^−7 to 10^−4.5 M, 12 hr, 37°C, 0.2% Cremophor EL (ZnPc-COOH), mean of four experiments
Experimental: as §4

MDA-MB-231 [15] = assay: Cellular uptake (fluorescence of cell lysate); details: 10^−7 to 10^−4.5 M, 12 hr, 37°C, 1% DMSO (ZnPc-GnRH) or 0.2% Cremophor EL (ZnPc-COOH), mean of four experiments
Experimental: as §4

Experimental for MCF-7 cells: 200 µl of MCF-7 cells (at a density of 2.5×10^5 per ml) were seeded in each well of 96-multiwell black opaque plates and incubated overnight at 37°C under 5% CO2. After treated with or without Cetrorelix (at a concentration of 7.5×10^−7 M), a GnRH antagonist, for 12 hr at 37°C, MCF-7 cells were washed twice with sterile PBS before fresh medium was added. These exponentially growing MCF-7 cells were then allowed to incubate with ZnPc-GnRH conjugate (at a concentration of 5×10^−6 M) for various time periods (5, 10, 20, 40, 80, 120 and 180 min) before the cellular uptakes were measured at different incubation time points as described above to determine the cellular uptake curves.

[Zn+2].c1ccc2c(c1)-c1nc-2nc2[n-]c(nc3nc([n-]c4nc(n1)-c1ccccc1-4)-c1ccccc1-3)c1ccccc21 [ZnPc, Zinc phthalocyanine]
Distribution in murine brain (S180 tumor-bearing mice; murine brain): very low level of distribution | Fluorescence quantum yield (Фf) [1]: 0.20 [20] | Fluorescence decay time (τs) ([2]; ref 23): 1.22 ns | Fluorescence decay time (τs) ([2]; ref 24): 3.6 ns

pentalysine phthalocyanine zinc [ZnPc-(Lys)5]
Selectivity for tumor over brain tissue (S180 tumor-bearing mice; S180 tumor-bearing mice): 6 fold | Selectivity for tumor over muscle tissue (S180 tumor-bearing mice; S180 tumor-bearing mice): 2 fold

CC(C)C[C@H](NC(=O)CNC(=O)[C@H](Cc1ccc(O)cc1)NC(=O)[C@H](CO)NC(=O)[C@H](Cc1c[nH]c2ccccc12)NC(=O)[C@H](Cc1c[nH]cn1)NC(=O)[C@H](CCC(=O)O)NC(=O)c1ccc2c3nc4nc(nc5[nH]c(nc6nc(nc([nH]3)c2c1)-c1ccccc1-6)c1ccccc51)-c1ccccc1-4)C(=O)N[C@@H](CCCNC(=N)N)C(=O)N1CCC[C@H]1C(=O)NCC(=O)O [ZnPc-GnRH]
Dark toxicity (MDA-MB-231 [3]): no obvious cellular dark toxicity | IC50 (MCF-7 [4]): 1820 nM | Singlet oxygen quantum yield (ФΔ) [5]: 0.73 | Dark toxicity (MCF-7 [6]): no obvious cellular dark toxicity | Fluorescence quantum yield (Фf) [7]: 0.17 | Dark toxicity (HELF [8]): no obvious cellular dark toxicity | Phototoxicity (HELF [8]; HELF, 10^−7 to 10^−4.5 M, 12 hr incubation, 670 nm, 1.5 J cm−2): no significant phototoxicity | Time at which cellular uptake reached the maximal level (MCF-7 cells): ~2 h | Fluorescence decay time (τs) [9]: 2.7 ns | Dark toxicity (HepG2 [10]): no obvious cellular dark toxicity | Phototoxicity (HepG2 [10]; HepG2, 10^−7 to 10^−4.5 M, 12 hr incubation, 670 nm, 1.5 J cm−2): no significant phototoxicity | IC50 (MDA-MB-231 [11]): 1320 nM

Mono-substituted β-carboxyphthalocyanine zinc [ZnPc-COOH]
Cellular uptake (MCF-7 [12]): low levels of cellular uptakes | Cellular uptake (HELF [13]): low levels of cellular uptakes | Cellular uptake (HepG2 [14]): low levels of cellular uptakes | Cellular uptake (MDA-MB-231 [15]): low levels of cellular uptakes
